Test results from publication PMC12332266 (Frontiers in Pharmacology, 2025).
“Also recorded” adds a separate entry of the source. Like-named read-outs stand apart in the source and are kept apart here.

Experiments:
[1] = system: hiPSC-CM (iCell Cardiomyocytes^2); assay: RTCA CardioECR assessment (impedance and electrophysiology parameters); conditions: for RTCA, MEC (CI): change ≥20%, Table 2
Procedure, shortened: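 iCell^2 cardiomyocytes on fibronectin-coated ePlates monitored continuously by impedance for cell index, beating rate and amplitude. Field potential duration and spike amplitude were recorded from day 4–6 after monolayer formation. Data were double-normalized to DMSO control and baseline, with variability given as SD.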

[2] = system: hiPSC-CM (iCell Cardiomyocytes^2); assay: Intracellular miRNA expression by RT-qPCR in hiPSC-CM pellets after 72-hour treatment; conditions: for fold induction at 0.0003 µM / fold induction at 0.003 µM / fold induction at 0.03 µM / fold induction at 0.3 µM: Homo sapiens
Procedure, shortened: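 After 72-hour treatment and RTCA CardioECR assessment, total RNA from hiPSC-CM pellets was reverse transcribed, pre-amplified and quantified by TaqMan RT-qPCR against a 17-miRNA panel. Triplicates were pooled, so no statistical analysis was performed.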

[3] = ref extensive literature search, cited from earlier work
[4] = system: hiPSC-CM (iCell Cardiomyocytes^2); assay: miRNA in hiPSC-CM culture media by RT-qPCR at 24, 48 and 72 h post-treatment; conditions: for hsa-miR-133b in culture media, in words: 24, 48, 72 h, arsenic trioxide 0.48 μM, milrinone 3 μM, vincristine 0.3 μM, erlotinib 7.7 μM; for hsa-miR-133b in culture media, in words / hsa-miR-187-3p in culture media, in words: doxorubicin 0.1 μM, vinblastine 0.3 μM;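 on all read-outs here: medium RNA quantified by RT-qPCR, CT-values normalized to housekeeping miRNAs, compared against DMSO control, doses chosen from the MEC for CI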
Experimental: To extract total RNA from the culture media, hiPSC-CM were plated on 24-well plates by seeding 275,000 cells per mL per well. hiPSC-CM were maintained for 7 days in 200 µL of iCell^2 Maintenance Medium (iCell^2 MM; FCDI) for the 48-well ePlate and in 1 mL for 24-well plate, before drug treatment. Culture media change was performed every 2 days.
Stock solutions were diluted 1:1000 in iCell^2 MM before treatment and equilibrated at 37°C. As vehicle control, DMSO 0.1% was added to the media. Drug treatments on biological replicates (n = 3) were refreshed daily, and culture media was collected for further miRNA analysis. After 72 h, cell pellets were collected and stored at −80°C until total RNA extraction.
hiPSC-CM culture media was collected daily from 24-well plates, and centrifuged (+4°C, 11,000 rpm) for 5 min to remove cellular debris/cells. Total RNA was extracted from 300 µL of supernatant by Trizol/Chloroform phase separation and purification of total RNA by miRNeasy 96 Kit (Qiagen, Hilden, Germany). The spike-in control cel-miR-39 (Qiagen, Hilden, Germany) was used to check the quality of samples and PCR efficiency. DNase treatment (RNase-Free DNase Set (Qiagen, Hilden, Germany)) was applied according to the manufacturer’s instructions. After the RNA extraction, the same RT-qPCR protocol as for hiPSC-CM lysate was followed. Multiple unpaired t-tests were performed to compare delta CT-values (CT-values normalized to the housekeeping miRNAs) of the treatment groups to the DMSO control.
Analysis of miRNA in the culture media of hiPSC-CM treated with structural cardiotoxicants was performed at 24-, 48- and 72-hour post-treatment. […] The treatment concentrations were selected based on the MEC for CI to ensure that the preliminary evidence of cardiotoxicity in hiPSC-CMs could potentially lead to miRNA release in the culture media.

[5] = 72 h, read-out: hsa-miR-7-5p fold change
[6] = 72 h, read-out: hsa-miR-29a-5p fold change
[7] = 72 h, read-out: hsa-miR-96-5p fold change
[8] = 72 h, read-out: hsa-miR-126-3p fold change
[9] = 72 h, read-out: hsa-miR-133b fold change
[10] = 72 h, read-out: hsa-miR-146b-5p fold change
[11] = 72 h, read-out: hsa-miR-182-5p fold change
[12] = 72 h, read-out: hsa-miR-185-3p fold change
[13] = 72 h, read-out: hsa-miR-187-3p fold change
[14] = 72 h, read-out: hsa-miR-208b-3p fold change
[15] = 72 h, read-out: hsa-miR-365a-5p fold change

CC[C@]1(O)C[C@H]2CN(CCc3c([nH]c4ccccc34)[C@@](C(=O)OC)(c3cc4c(cc3OC)N(C=O)[C@H]3[C@@](O)(C(=O)OC)[C@H](OC(C)=O)[C@]5(CC)C=CCN6CC[C@]43[C@@H]65)C2)C1 [Vincristine]
Cell index (CI) MEC ([1]; hiPSC-CM, 72-hour treatment, lowest concentration causing at least 20% change from baseline): 0.003 µM | RTCA, MEC (CI) ([1]; hiPSC-CM): 0.003 µM (CI) | Cell Index MEC ([1]; human, 72 h): 0.003 µM | Contractility Amplitude MEC ([1]; human, 72 h): 0.003 µM | Spike Amplitude (SA) MEC ([1]; human, 72 h): 0.003 µM | intracellular miRNA upregulation in hiPSC-CM, in words [2]: smallest fold change | miRNAs hiPSC-CM pellet, MEC overall [2]: 0.0003 µM | miRNAs upregulated at the MEC overall (hiPSC-CM pellet) [2]: miR-126-3p | hsa-miR-7-5p fold change, intracellular ([2]; 0.3 µM, 72 h): 1.0 | hsa-miR-29a-5p fold change, intracellular ([2]; 0.3 µM, 72 h): 1.0 | hsa-miR-96-5p fold change, intracellular ([2]; 0.3 µM, 72 h): 0.8 | hsa-miR-126-3p fold change, intracellular ([2]; 0.3 µM, 72 h): 1.4 | hsa-miR-133b fold change, intracellular ([2]; 0.3 µM, 72 h): 0.3 | hsa-miR-146b-5p fold change, intracellular ([2]; 0.3 µM, 72 h): 0.3 | hsa-miR-182-5p fold change, intracellular ([2]; 0.3 µM, 72 h): 0.4 | hsa-miR-185-3p fold change, intracellular ([2]; 0.3 µM, 72 h): 1.1 | hsa-miR-187-3p fold change, intracellular ([2]; 0.3 µM, 72 h): 0.7 | hsa-miR-208b-3p fold change, intracellular ([2]; 0.3 µM, 72 h): 2.2 | fold induction at 0.0003 µM [2, 5]: 1 | fold induction at 0.003 µM [2, 5]: 1.1 | fold induction at 0.03 µM [2, 5]: 0.9 | fold induction at 0.3 µM [2, 5]: 1 | fold induction at 0.0003 µM [2, 6]: 0.4 | fold induction at 0.003 µM [2, 6]: 0.7 | fold induction at 0.03 µM [2, 6]: 1 | fold induction at 0.3 µM [2, 6]: 1 | fold induction at 0.0003 µM [2, 7]: 0.3 | fold induction at 0.003 µM [2, 7]: 0.6 | fold induction at 0.03 µM [2, 7]: 0.3 | fold induction at 0.3 µM [2, 7]: 0.8 | fold induction at 0.0003 µM [2, 8]: 3.2 | fold induction at 0.003 µM [2, 8]: 1.9 | fold induction at 0.03 µM [2, 8]: 1.3 | fold induction at 0.3 µM [2, 8]: 1.4 | fold induction at 0.0003 µM [2, 9]: 0.3 | fold induction at 0.003 µM [2, 9]: 0.2 | fold induction at 0.03 µM [2, 9]: 0.4 | fold induction at 0.3 µM [2, 9]: 0.3 | fold induction at 0.0003 µM [2, 10]: 1.2 | fold induction at 0.003 µM [2, 10]: 0.7 | fold induction at 0.03 µM [2, 10]: 0.4 | fold induction at 0.3 µM [2, 10]: 0.3 | fold induction at 0.0003 µM [2, 11]: 0.4 | fold induction at 0.003 µM [2, 11]: 0.5 | fold induction at 0.3 µM [2, 11]: 0.4 | fold induction at 0.0003 µM [2, 12]: 1.4 | fold induction at 0.003 µM [2, 12]: 2 | fold induction at 0.03 µM [2, 12]: 1 | fold induction at 0.3 µM [2, 12]: 1.1 | fold induction at 0.0003 µM [2, 13]: 1.3 | fold induction at 0.003 µM [2, 13]: 1.9 | fold induction at 0.03 µM [2, 13]: 1.4 | fold induction at 0.3 µM [2, 13]: 0.7 | fold induction at 0.0003 µM [2, 14]: 0.8 | fold induction at 0.003 µM [2, 14]: 1.3 | fold induction at 0.03 µM [2, 14]: 1.6 | fold induction at 0.3 µM [2, 14]: 2.2 | fold induction at 0.0003 µM [2, 15]: 0.6 | fold induction at 0.003 µM [2, 15]: 1.6 | fold induction at 0.03 µM [2, 15]: 1 | intracellular miRNA upregulation in hiPSC-CM, in words ([2]; human, 72 h): intracellular miR-208-3p was upregulated | Cmax total ([3]; Supplementary Table 1): 50 nM | Cmax total ([3]; Table 1): 50 nM | hsa-miR-126-3p fold change, culture media ([4]; 0.3 µM, 24h): 0.4 | hsa-miR-208b-3p fold change, culture media ([4]; 0.3 µM, 24h): 0.9 | hsa-miR-[…] change, culture media ([4]; 0.3 µM, 24h): 1.6 | hsa-miR-208b-3p fold change, culture media ([4]; 0.3 µM, 48h): 1.3 | hsa-miR-[…] change, culture media ([4]; 0.3 µM, 48h): 1.4 | hsa-miR-7-5p fold change, culture media ([4]; 0.3 µM, 72 h): 0.5 | hsa-miR-133b fold change, culture media ([4]; 0.3 µM, 72 h): 2.4 | hsa-miR-187-3p fold change, culture media ([4]; 0.3 µM, 72 h): 16.0 | hsa-miR-208b-3p fold change, culture media ([4]; 0.3 µM, 72 h): 2.3 | hsa-miR-[…] change, culture media ([4]; 0.3 µM, 72 h): 0.3 | hsa-miR-133b in culture media, in words [4]: increase that was not statistically significant

CC[C@]1(O)C[C@@H]2CN(CCc3c([nH]c4ccccc34)[C@@](C(=O)OC)(c3cc4c(cc3OC)N(C)[C@H]3[C@@](O)(C(=O)OC)[C@H](OC(C)=O)[C@]5(CC)C=CCN6CC[C@]43[C@@H]65)C2)C1 [Vinblastine]
RTCA, MEC (CI) ([1]; hiPSC-CM): 0.3 µM | Beating Rate MEC ([1]; human, 72 h): 0.003 µM | Beating rate (BR) MEC ([1]; human, 72 h): 0.003 µM | Contractility Amplitude MEC ([1]; human, 72 h): 0.0003 µM | RTCA, MEC (BR) ([1]; human, 72 h): 0.003 µM | Spike Amplitude (SA) MEC ([1]; human, 72 h): 0.0003 µM | miRNAs hiPSC-CM pellet, MEC overall [2]: 0.0003 µM | miRNAs upregulated at the MEC overall (hiPSC-CM pellet) [2]: miR-126-3p, miR-133b, miR-185-3p | Cmax total ([3]; Supplementary Table 1): 35 nM | Cmax total ([3]; Table 1): 35 nM | hsa-miR-133b in culture media, in words [4]: upregulation was detected only after 72 h of treatment; also recorded: significant upregulation was observed only after 72-hour treatment | hsa-miR-187-3p in culture media, in words [4]: detected in the culture media only following 72-hour exposure

COc1cccc2c1C(=O)c1c(O)c3c(c(O)c1C2=O)C[C@@](O)(C(=O)CO)C[C@@H]3O[C@H]1C[C@H](N)[C@H](O)[C@H](C)O1 [Doxorubicin]
RTCA, MEC (CI) ([1]; hiPSC-CM): 0.1 µM (CI) | Contractility Amplitude MEC ([1]; human, 72 h): 0.1 µM | Spike Amplitude (SA) MEC ([1]; human, 72 h): 0.01 µM | intracellular miRNA upregulation in hiPSC-CM, in words [2]: lowest upregulation of miRNAs was detected at the highest concentration tested | miRNAs hiPSC-CM pellet, MEC overall [2]: 0.03 µM | miRNAs upregulated at the MEC overall (hiPSC-CM pellet) [2]: miR-34a-5p, miR-146b-5p, miR-187-3p | Cmax total ([3]; Supplementary Table 1): 1600 nM | Cmax total ([3]; Table 1): 1600 nM | hsa-miR-133b in culture media, in words [4]: upregulation was detected only after 72 h of treatment; also recorded: significant upregulation was observed only after 72-hour treatment | hsa-miR-187-3p in culture media, in words [4]: detected in the culture media only following 72-hour exposure
